Legend:
[1] = molecular target: Recombinant human c-Cbl (aa 47-435) (Homo sapiens (Human), UniProt P22681); test: c-Cbl Biochemical Assay (TR-FRET)
How it was run: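 TR-FRET binding of UBE2D2-Ub-Bodipy (100 nM) to biotinylated c-Cbl (aa 47-435, 6 nM) via Streptavidin-Tb, measured after c-Cbl activation by Src-Zap70 with 0.5 mM ATP (60-90 min RT, 30 min compound preincubation). Ten-point half-log dilutions, 1% DMSO; IC50 by 4-parameter fit of normalized inhibition.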

[2] = molecular target: Recombinant human Cbl-b (aa 36-427) (Homo sapiens (Human), UniProt Q13191); test: Cbl-b Biochemical Assay (TR-FRET); conditions: read-out: TR-FRET hCbl-b IC50
How it was run: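 IC50 from 4-parameter fit of % inhibition (DMSO max, reference-inhibitor min), duplicate ten-point series. Compound preincubated with 6 nM Cbl-b, then Src-Zap70 (1-2.5 nM)/0.5 mM ATP reaction 60 min RT; EDTA quench with labelled UBE2D2-Ub and streptavidin-terbium, 60 min, HTRF at 520 nm.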

Sequence of Recombinant human Cbl-b (aa 36-427) (Q13191 36-427): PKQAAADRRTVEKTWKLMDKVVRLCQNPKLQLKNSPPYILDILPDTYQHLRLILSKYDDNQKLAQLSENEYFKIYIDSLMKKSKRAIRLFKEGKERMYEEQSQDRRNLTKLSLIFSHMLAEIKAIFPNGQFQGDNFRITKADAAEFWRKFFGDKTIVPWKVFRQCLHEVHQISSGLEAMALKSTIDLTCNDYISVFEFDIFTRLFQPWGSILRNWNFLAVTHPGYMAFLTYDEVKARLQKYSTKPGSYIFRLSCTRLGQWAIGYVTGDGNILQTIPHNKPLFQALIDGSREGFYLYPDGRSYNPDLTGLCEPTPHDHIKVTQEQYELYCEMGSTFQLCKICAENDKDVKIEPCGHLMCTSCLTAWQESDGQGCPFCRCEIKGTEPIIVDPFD
Sequence of Recombinant human c-Cbl (aa 47-435) (P22681 47-435): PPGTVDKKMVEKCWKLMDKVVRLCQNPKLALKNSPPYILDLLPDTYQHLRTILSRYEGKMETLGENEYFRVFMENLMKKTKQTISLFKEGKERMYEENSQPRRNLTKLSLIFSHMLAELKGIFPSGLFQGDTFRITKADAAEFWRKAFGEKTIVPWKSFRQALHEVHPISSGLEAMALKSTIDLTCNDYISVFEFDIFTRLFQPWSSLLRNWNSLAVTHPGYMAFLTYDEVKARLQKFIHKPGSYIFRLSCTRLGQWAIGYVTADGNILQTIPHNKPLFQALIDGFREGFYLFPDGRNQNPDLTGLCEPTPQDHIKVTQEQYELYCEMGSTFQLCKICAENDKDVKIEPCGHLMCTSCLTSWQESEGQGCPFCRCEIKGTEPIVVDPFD

SMILES: COCCNCc1ccc2c(c1)C(=O)N(c1cc(-c3ccc(C#N)cc3-c3nncn3C)cc(C3CC3)c1)C2 [AJQ-2, 3′-Cyclopropyl-5′-(6-(((2-methoxyethyl)amino)methyl)-1-oxoisoindolin-2-yl)-2-(4-methyl-4H-1,2,4-triazol-3-yl)-[1,1′-biphenyl]-4-carbonitrile]
- IC50 [1]: ≤ 200 nM
- IC50 [2]: ≤ 200 nM

SMILES: CCOc1cc(-c2ccc(F)cc2-c2nncn2C)cc(N2Cc3c(OC)cc(CO)cc3C2=O)n1 [AJC-1, 2-(6-Ethoxy-4-(4-fluoro-2-(4-methyl-4H-1,2,4-triazol-3-yl)phenyl)pyridin-2-yl)-6-(hydroxymethyl)-4-methoxyisoindolin-1-one]
- IC50 [1]: ≤ 200 nM
- IC50 [2]: ≤ 200 nM

SMILES: COc1cc2c(cc1CNCC1CCC1)C(=O)N(c1cc(-c3ccc(C#N)cc3-c3nncn3C)cc(C3CC3)n1)C2 [AKM-2, 4-[2-(6-{[(Cyclobutylmethyl)amino]methyl}-5-methoxy-1-oxo-3H-isoindol-2-yl)-6-cyclopropylpyridin-4-yl]-3-(4-methyl-1,2,4-triazol-3-yl)benzonitrile]
- IC50 [1]: 1000 to 10000 nM
- IC50 [2]: 1000 to 10000 nM

SMILES: Cn1cnnc1-c1cc(C#N)ccc1-c1cc(C2CC2)nc(N2Cc3c(F)cc(CN4CC[C@H]5COC[C@@H]54)cc3C2=O)c1 (stereo in doubt) [AOT-2, 4-(2-Cyclopropyl-6-(4-fluoro-6-((hexahydro-1H-furo[3,4-b]pyrrol-1-yl)methyl)-1-oxoisoindolin-2-yl)pyridin-4-yl)-3-(4-methyl-4H-1,2,4-triazol-3-yl)benzonitrile]
- IC50 [1]: ≤ 200 nM
- IC50 [2]: ≤ 200 nM

SMILES: Cn1cnnc1-c1cc(C#N)ccc1-c1cc(C2CC2)nc(N2Cc3ccc([C@H]4COC[C@@H](C5CCC5)N4)cc3C2=O)c1 (stereo in doubt) [AOP-4, rac-4-(2-{6-[(3R,5S)-5-Cyclobutylmorpholin-3-yl]-1-oxo-3H-isoindol-2-yl}-6-cyclopropylpyridin-4-yl)-3-(4-methyl-1,2,4-triazol-3-yl)benzonitrile]
- IC50 [1]: ≤ 200 nM
- IC50 [2]: ≤ 200 nM

SMILES: CC(C)OCCNCc1ccc2c(c1)C(=O)N(c1cc(-c3ccc(C#N)cc3-c3nncn3C)cc(C3CC3)n1)C2 [AIL-3, 4-[2-Cyclopropyl-6-(6-{[(2-isopropoxyethyl)amino]methyl}-1-oxo-3H-isoindol-2-yl)pyridin-4-yl]-3-(4-methyl-1,2,4-triazol-3-yl)benzonitrile]
- IC50 [1]: ≤ 200 nM
- IC50 [2]: ≤ 200 nM

SMILES: COCCNCc1cc(Br)c2c(c1)C(=O)N(c1cc(-c3ccc(C#N)cc3-c3nncn3C)cc(C3CC3)n1)C2 [ALB-2, 4-[2-(4-Bromo-6-{[(2-methoxyethyl)amino]methyl}-1-oxo-3H-isoindol-2-yl)-6-cyclopropylpyridin-4-yl]-3-(4-methyl-1,2,4-triazol-3-yl)benzonitrile]
- IC50 [1]: ≤ 200 nM
- IC50 [2]: ≤ 200 nM

SMILES: Cn1cnnc1-c1cc(C#N)ccc1-c1cc(C2CC2)nc(N2Cc3ccc(CN4CC5(COC5)C4)cc3C2=O)c1 [AOL-1, 4-[2-Cyclopropyl-6-(6-{2-oxa-6-azaspiro[3.3]heptan-6-ylmethyl}-1-oxo-3H-isoindol-2-yl)pyridin-4-yl]-3-(4-methyl-1,2,4-triazol-3-yl)benzonitrile]
- IC50 [1]: ≤ 200 nM
- IC50 [2]: ≤ 200 nM

SMILES: Cn1cnnc1-c1cc(C#N)ccc1-c1cc(C2CC2)nc(N2Cc3ccc(CNCC4CCC4)cc3C2=O)c1 [AIA-2, 4-[2-(6-{[(Cyclobutylmethyl)amino]methyl}-1-oxo-3H-isoindol-2-yl)-6-cyclopropylpyridin-4-yl]-3-(4-methyl-1,2,4-triazol-3-yl)benzonitrile]
- IC50 [1]: ≤ 200 nM
- IC50 [2]: ≤ 200 nM

SMILES: CCOc1cc(-c2ccc(C#N)cc2-c2nncn2C)cc(N2Cc3ccc(CO)cc3C2=O)n1 [AKX-1, 4-{2-Ethoxy-6-[6-(hydroxymethyl)-1-oxo-3H-isoindol-2-yl]pyridin-4-yl}-3-(4-methyl-1,2,4-triazol-3-yl)benzonitrile]
- IC50 [1]: 200 to 1000 nM
- IC50 [2]: ≤ 200 nM

SMILES: Cn1cnnc1-c1cc(C#N)ccc1-c1cc(C2CC2)nc(N2Cc3c(F)cc(CN[C@@]4(C)COC[C@H]4O)cc3C2=O)c1 (stereo in doubt) [AOG-1, 4-[2-Cyclopropyl-6-(4-fluoro-6-{[(4-hydroxy-3-methyloxolan-3-yl)amino]methyl}-1-oxo-3H-isoindol-2-yl)pyridin-4-yl]-3-(4-methyl-1,2,4-triazol-3-yl)benzonitrile]
- IC50 [1]: ≤ 200 nM
- IC50 [2]: ≤ 200 nM

SMILES: C[C@@H](NCC1COC1)c1ccc2c(c1)C(=O)N(c1cc(-c3ccc(C#N)cc3-c3nncn3C)cc(C3CC3)n1)C2 [ANN-2, (R)-4-(2-Cyclopropyl-6-(6-(1-((oxetan-3-ylmethyl)amino)ethyl)-1-oxoisoindolin-2-yl)pyridin-4-yl)-3-(4-methyl-4H-1,2,4-triazol-3-yl)benzonitrile]
- IC50 [1]: ≤ 200 nM
- IC50 [2]: ≤ 200 nM

SMILES: Cn1cnnc1-c1cc(C#N)ccc1-c1cc(C2CC2)nc(N2Cc3c(F)cc(CNCC(F)(F)F)cc3C2=O)c1 [ALW-1, -[2-Cyclopropyl-6-(4-fluoro-1-oxo-6-{[(2,2,2-trifluoroethyl)amino]methyl}-3H-isoindol-2-yl)pyridin-4-yl]-3-(4-methyl-1,2,4-triazol-3-yl)benzonitrile]
- IC50 [1]: ≤ 200 nM
- IC50 [2]: ≤ 200 nM

SMILES: Cn1cnnc1-c1cc(C#N)ccc1-c1cc(C2CC2)nc(N2Cc3ccc(O)cc3C2=O)c1 [AJL-2, 4-(2-cyclopropyl-6-(6-hydroxy-1-oxoisoindolin-2-yl)pyridin-4-yl)-3-(4-methyl-4H-1,2,4-triazol-3-yl)benzonitrile]
- IC50 [1]: ≤ 200 nM
- IC50 [2]: ≤ 200 nM

SMILES: Cn1cnnc1-c1cc(C#N)ccc1-c1cc(C2CC2)nc(N2Cc3ccc(CNCC4(F)CCC4)cc3C2=O)c1 [AJX-1, 4-{2-Cyclopropyl-6-[6-({[(1-fluorocyclobutyl)methyl]amino}methyl)-1-oxo-3H-isoindol-2-yl]pyridin-4-yl}-3-(4-methyl-1,2,4-triazol-3-yl)benzonitrile]
- IC50 [1]: ≤ 200 nM
- IC50 [2]: ≤ 200 nM

SMILES: CN(Cc1ccc2c(c1)C(=O)N(c1cc(-c3ccc(Cl)cc3-c3nncn3C)cc(C3CC3)n1)C2)CC1(O)CCC1 [AMG-1, 2-(4-(4-Chloro-2-(4-methyl-4H-1,2,4-triazol-3-yl)phenyl)-6-cyclopropylpyridin-2-yl)-6-((((1-hydroxycyclobutyl)methyl)(methyl)amino)methyl)isoindolin-1-one]
- IC50 [1]: ≤ 200 nM
- IC50 [2]: ≤ 200 nM

SMILES: CN(Cc1ccc2c(c1)C(=O)N(c1cc(-c3ccc(F)cc3-c3nncn3C)cc(C3CC3)n1)C2)CC1(O)CCC1 [AJS-1, 2-(6-Cyclopropyl-4-(4-fluoro-2-(4-methyl-4H-1,2,4-triazol-3-yl)phenyl)pyridin-2-yl)-6-((((1-hydroxycyclobutyl)methyl) (methyl)amino)methyl)isoindolin-1-one]
- IC50 [1]: ≤ 200 nM
- IC50 [2]: ≤ 200 nM

SMILES: CN(Cc1cc(F)c2c(c1)C(=O)N(c1cc(-c3ccc(C#N)cc3-c3nncn3C)cc(C3CC3)n1)C2)C1CC1 [AMQ-2, 4-[2-Cyclopropyl-6-(6-{[cyclopropyl(methyl)amino]methyl}-4-fluoro-1-oxo-3H-isoindol-2-yl)pyridin-4-yl]-3-(4-methyl-1,2,4-triazol-3-yl)benzonitrile]
- IC50 [1]: ≤ 200 nM
- IC50 [2]: ≤ 200 nM

SMILES: Cn1cnnc1-c1cc(Cl)ccc1-c1cc(C2CC2)nc(N2Cc3ccc(CNCC4CCC4)cc3C2=O)c1 [AIV-2, 2-(4-(4-Chloro-2-(4-methyl-4H-1,2,4-triazol-3-yl)phenyl) -6-cyclopropylpyridin-2-yl)-6-(((cyclobutylmethyl)amino)methyl) isoindolin-1-one]
- IC50 [1]: ≤ 200 nM
- IC50 [2]: ≤ 200 nM

SMILES: CN(Cc1cc(F)c2c(c1)C(=O)N(c1cc(-c3ccc(C#N)cc3-c3nncn3C)cc(C3CC3)n1)C2)CC1(O)CCC1 [AMW-2, 4-{2-Cyclopropyl-6-[4-fluoro-6-({[(1-hydroxycyclobutyl)methyl](methyl)amino}methyl)-1-oxo-3H-isoindol-2-yl]pyridin-4-yl}-3-(4-methyl-1,2,4-triazol-3-yl)benzonitrile]
- IC50 [1]: ≤ 200 nM
- IC50 [2]: ≤ 200 nM

SMILES: CO[C@H](C)[C@@H](C)NCc1cc(F)c2c(c1)C(=O)N(c1cc(-c3ccc(C#N)cc3-c3nncn3C)cc(C3CC3)n1)C2 [ALC-2, 4-{2-Cyclopropyl-6-[4-fluoro-6-({[(2R,3R)-3-methoxybutan-2-yl]amino}methyl)-1-oxo-3H-isoindol-2-yl]pyridin-4-yl}-3-(4-methyl-1,2,4-triazol-3-yl)benzonitrile]
- IC50 [1]: ≤ 200 nM
- IC50 [2]: ≤ 200 nM

SMILES: Cn1cnnc1-c1cc(C#N)ccc1-c1cc(C2CC2)nc(N2Cc3c(F)cc(CN[C@]4(C)COC[C@@H]4O)cc3C2=O)c1 (stereo in doubt) [AOF-9, 4-[2-Cyclopropyl-6-(4-fluoro-6-{[(4-hydroxy-3-methyloxolan-3-yl)amino]methyl}-1-oxo-3H-isoindol-2-yl)pyridin-4-yl]-3-(4-methyl-1,2,4-triazol-3-yl)benzonitrile]
- IC50 [1]: < 200 nM
- IC50 [2]: < 200 nM

SMILES: CC(NCC1CCC1)c1ccc2c(c1)C(=O)N(c1cc(-c3ccc(C#N)cc3-c3nncn3C)cc(C3CC3)n1)C2 (stereo not drawn) [AJZ-1, 4-(2-(6-(1-((Cyclobutylmethyl)amino)ethyl)-1-oxoisoindolin-2-yl)-6-cyclopropylpyridin-4-yl)-3-(4-methyl-4H-1,2,4-triazol-3-yl)benzonitrile]
- IC50 [1]: ≤ 200 nM
- IC50 [2]: ≤ 200 nM

SMILES: CCOc1cc(-c2ccc(F)cc2-c2nncn2C)cc(N2Cc3c(OC)cc(CN(C)CC4(O)CCC4)cc3C2=O)n1 [AJO-2, 2-(6-Ethoxy-4-(4-fluoro-2-(4-methyl-4H-1,2,4-triazol-3-yl)phenyl)pyridin-2-yl)-6-((((1-hydroxycyclobutyl)methyl)(methyl)amino)methyl)-4-methoxyisoindolin-1-one]
- IC50 [1]: ≤ 200 nM
- IC50 [2]: ≤ 200 nM

Source: patent US12325697B2 (Nimbus Clio, Inc., priority 2021, dated 2025)
